In article PMC10935098 (Molecules, 2024):
In brackets after ≈: the same amount, converted by molar mass.

How the values were obtained:
[1] = tested on: Candida tropicalis (BNCC340288); assay: microbe, parasite or virus in culture; conditions: 24 h, read-out: MIC, C. tropical
[2] = tested on: Candida parapsilosis (BNCC336015); assay: microbe, parasite or virus in culture; conditions: Lodderomyces parapsilosis, 24 h, read-out: MIC, C. parapsilosis

Clc1ccccc1C(c1ccccc1)(c1ccccc1)n1ccnc1 [clotrimazole]
MIC [1]: 12.5 µM (≈ 4.31 µg/mL)
MIC [2]: 25 µM (≈ 8.62 µg/mL)
